These results are taken from ChEMBL document CHEMBL3351253, “Sterol fatty acid esters from the mushroom Hericium erinaceum and their PPAR transactivational effects” (J Nat Prod, 2014).

Format in all cases: cell-based
In data set [1] the test system is HepG2. The experiment in a line: Cytotoxicity against human HepG2 cells assessed as CCK8 after 24 hrs. The conditions noted are these: hepg2, 24 h.
Data set [2] deals with T1, Peroxisome proliferator-activated receptor (Homo sapiens, UniProt P37231+Q07869+Q03181).
T1 sequence (P37231 whole entry): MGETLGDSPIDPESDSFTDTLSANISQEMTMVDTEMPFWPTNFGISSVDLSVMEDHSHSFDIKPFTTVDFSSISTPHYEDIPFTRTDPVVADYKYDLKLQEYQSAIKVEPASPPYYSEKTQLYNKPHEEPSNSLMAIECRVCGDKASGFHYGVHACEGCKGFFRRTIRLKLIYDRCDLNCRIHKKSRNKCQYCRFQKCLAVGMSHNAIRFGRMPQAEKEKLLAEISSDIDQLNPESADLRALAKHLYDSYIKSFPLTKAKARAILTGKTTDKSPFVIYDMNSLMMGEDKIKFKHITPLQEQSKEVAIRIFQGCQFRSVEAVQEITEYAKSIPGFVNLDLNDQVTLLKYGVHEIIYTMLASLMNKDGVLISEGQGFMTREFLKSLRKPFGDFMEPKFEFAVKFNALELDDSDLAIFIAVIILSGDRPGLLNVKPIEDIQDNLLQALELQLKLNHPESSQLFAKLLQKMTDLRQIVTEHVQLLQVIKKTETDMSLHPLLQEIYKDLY
T1 sequence (Q07869 whole entry): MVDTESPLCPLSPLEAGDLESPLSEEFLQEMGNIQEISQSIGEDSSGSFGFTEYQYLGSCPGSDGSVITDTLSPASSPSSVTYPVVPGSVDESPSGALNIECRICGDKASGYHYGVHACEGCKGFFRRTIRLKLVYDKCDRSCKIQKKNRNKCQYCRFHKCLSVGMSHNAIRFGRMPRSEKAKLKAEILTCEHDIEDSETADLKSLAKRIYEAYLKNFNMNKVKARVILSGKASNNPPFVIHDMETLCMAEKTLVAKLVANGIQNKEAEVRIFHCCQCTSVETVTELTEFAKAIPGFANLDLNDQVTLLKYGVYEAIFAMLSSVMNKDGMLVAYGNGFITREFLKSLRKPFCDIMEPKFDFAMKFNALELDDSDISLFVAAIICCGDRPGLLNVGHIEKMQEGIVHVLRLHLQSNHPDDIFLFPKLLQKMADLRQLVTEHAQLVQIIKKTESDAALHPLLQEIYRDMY
T1 sequence (Q03181 whole entry): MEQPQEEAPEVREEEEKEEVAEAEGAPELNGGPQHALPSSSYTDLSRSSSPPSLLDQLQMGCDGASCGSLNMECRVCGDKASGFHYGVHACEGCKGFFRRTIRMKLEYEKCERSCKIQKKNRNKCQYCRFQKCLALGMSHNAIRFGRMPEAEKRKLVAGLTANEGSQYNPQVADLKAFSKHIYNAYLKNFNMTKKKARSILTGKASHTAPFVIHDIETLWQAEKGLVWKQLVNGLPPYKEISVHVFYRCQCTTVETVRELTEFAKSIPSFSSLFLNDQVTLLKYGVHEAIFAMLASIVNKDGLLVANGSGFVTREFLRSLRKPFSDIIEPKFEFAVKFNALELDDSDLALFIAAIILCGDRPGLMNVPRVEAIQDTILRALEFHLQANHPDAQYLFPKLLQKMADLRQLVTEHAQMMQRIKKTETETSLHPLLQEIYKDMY
As to the kind of experiment: (§1) Transactivation of PPAR transfected in human HepG2 cells after 20 hrs by PPAR-luciferase assay.

Data set [3] concerns the target T2, Peroxisome proliferator-activated receptor gamma (Homo sapiens) (UniProt P37231).
T2 sequence (whole entry): T1 sequence (P37231 whole entry)
The experiment in a line: Transactivation of human Gal4-PPARgamma LBD transfected in human HepG2 cells assessed as stimulation at 5 uM after 20 hrs by luciferase reporter gene assay relative to vehicle-treated control.

Data set [4] deals with T3, Peroxisome proliferator-activated receptor delta (Homo sapiens) (UniProt Q03181).
T3 sequence (whole entry): T1 sequence (Q03181 whole entry)
As to the kind of experiment: Transactivation of human Gal4-PPARbeta/delta LBD transfected in human HepG2 cells assessed as stimulation at 20 uM after 20 hrs by luciferase reporter gene assay relative to vehicle-treated control. On the technique in general: In a reporter assay the amount or activity of a reporter protein is the signal.

Data set [5] addresses T4, Peroxisome proliferator-activated receptor alpha (Homo sapiens) (UniProt Q07869).
T4 sequence (whole entry): T1 sequence (Q07869 whole entry)
As to the kind of experiment: Transactivation of human Gal4-PPARalpha LBD transfected in human HepG2 cells assessed as stimulation at 10 uM after 20 hrs by luciferase reporter gene assay relative to vehicle-treated control.

Data set [6] has as its target T3, Peroxisome proliferator-activated receptor delta (Homo sapiens). As to the kind of experiment: Transactivation of human Gal4-PPARbeta/delta LBD transfected in human HepG2 cells assessed as stimulation at 5 uM after 20 hrs by luciferase reporter gene assay relative to vehicle-treated control.
Data set [7] deals with T4, Peroxisome proliferator-activated receptor alpha (Homo sapiens). As to the kind of experiment: Transactivation of human Gal4-PPARalpha LBD transfected in human HepG2 cells assessed as stimulation at 20 uM after 20 hrs by luciferase reporter gene assay relative to vehicle-treated control.
In data set [8] the target is T3, Peroxisome proliferator-activated receptor delta (Homo sapiens). As to the kind of experiment: Transactivation of human Gal4-PPARbeta/delta LBD transfected in human HepG2 cells assessed as stimulation at 10 uM after 20 hrs by luciferase reporter gene assay relative to vehicle-treated control.
The target in data set [9] is T2, Peroxisome proliferator-activated receptor gamma (Homo sapiens). The experiment in a line: Transactivation of human Gal4-PPARgamma LBD transfected in human HepG2 cells assessed as stimulation at 20 uM after 20 hrs by luciferase reporter gene assay relative to vehicle-treated control.
Data set [10] shares this target. As to the kind of experiment: Transactivation of human Gal4-PPARgamma LBD transfected in human HepG2 cells assessed as stimulation at 10 uM after 20 hrs by luciferase reporter gene assay relative to vehicle-treated control.
Data set [11] concerns the target T4, Peroxisome proliferator-activated receptor alpha (Homo sapiens). As to the kind of experiment: Transactivation of human Gal4-PPARalpha LBD transfected in human HepG2 cells assessed as stimulation at 5 uM after 20 hrs by luciferase reporter gene assay relative to vehicle-treated control.
The target in data set [12] is Peroxisome proliferator-activated receptor (Homo sapiens) (UniProt P37231+Q07869+Q03181). The data set is described as §1.
The target of data set [13] is T4, Peroxisome proliferator-activated receptor alpha (Homo sapiens). As to the kind of experiment: Transactivation of human Gal4-PPARalpha LBD transfected in human HepG2 cells assessed as stimulation at 1 uM after 20 hrs by luciferase reporter gene assay relative to vehicle-treated control.
Data set [14] deals with T3, Peroxisome proliferator-activated receptor delta (Homo sapiens). As to the kind of experiment: Transactivation of human Gal4-PPARbeta/delta LBD transfected in human HepG2 cells assessed as stimulation at 1 uM after 20 hrs by luciferase reporter gene assay relative to vehicle-treated control.

Consider `CCCCCCCCCCCCCCCC(=O)O[C@H]1CC[C@@]2(C)C(=CC=C3[C@@H]4CC[C@H]([C@H](C)/C=C/[C@H](C)C(C)C)[C@@]4(C)CC[C@@H]32)C1`, for which the Activity entry in data set [1] is reported as “Non-toxic”. Moreover, the 50% effective concentration (EC50) (in general, the midpoint of the concentration-response curve) in [2] was greater than 50 µM.
Regarding `CCCCC/C=C\C/C=C\CCCCCCCC(=O)O[C@H]1C2=C3CC[C@H]([C@H](C)/C=C/[C@H](C)C(C)C)[C@@]3(C)CC[C@@H]2[C@@]2(C)CC[C@H](O)C[C@@]23O[C@@H]13`, the Activity is 129% in data set [3]; 121% in [4]; “Non-toxic” in [1]; 346% in data set [5]; 99.6% in data set [6]; 386% in data set [7]. For the same compound, the Activity in [8] was 111%; in data set [9], 162%; in data set [10], 156%; in data set [11], 309%; in [12] it was “Dose-dependent effect”. In addition, in data set [2], the EC50 worked out at 6.4 µM.
As to `CCCCC/C=C\C/C=C\CCCCCCCC(=O)O[C@H]1CC[C@]2(C)[C@@]3(O)CC[C@]4(C)[C@@H]([C@H](C)/C=C/[C@H](C)C(C)C)CC[C@H]4C3=C[C@H](O)[C@@]2(O)C1`, the Activity result in data set [1] is “Non-toxic”. The same compound showed a 50% effective concentration (EC50) in [2] of 22.3 µM.
In the case of `CCCCC/C=C\C/C=C\CCCCCCCC(=O)O[C@H]1CC[C@]2(C)[C@H]3CC[C@]4(C)[C@@H]([C@H](C)/C=C/[C@H](C)C(C)C)CC[C@H]4C3=C[C@H](O)[C@@]2(O)C1`, the Activity result in data set [1] is “Non-toxic”. The compound also displayed an EC50 in [2] of 18.7 µM.
As to `CCCCCCCCCCCCCCCC(=O)O[C@H]1C=C2[C@@H]3CC[C@H]([C@H](C)/C=C/[C@H](C)C(C)C)[C@@]3(C)CC[C@@H]2[C@@]2(C)CC[C@H](O)C[C@]12O`, the Activity result in data set [1] is reported as “Non-toxic”. The compound further yielded an EC50 in [2] greater than 50 µM.
The corresponding values for `CCCCCCCC/C=C\CCCCCCCC(=O)O[C@H]1C=C2[C@@H]3CC[C@H]([C@H](C)/C=C/[C@H](C)C(C)C)[C@@]3(C)CC[C@@H]2[C@@]2(C)CC[C@H](O)C[C@]12O` are “Non-toxic” and greater than 50 µM.
`CCCCCCCCCCCCCCCCCC(=O)O[C@H]1CC[C@]2(C)[C@H]3CC[C@]4(C)[C@@H]([C@H](C)/C=C/[C@H](C)C(C)C)CC[C@H]4C3=C[C@H](O)[C@@]2(O)C1`: the Activity entry in data set [1] was “Non-toxic”. The compound also showed an EC50 in [2] of 20.6 µM.
In the case of `CCCCCCCC/C=C\CCCCCCCC(=O)O[C@H]1C2=C3CC[C@H]([C@H](C)/C=C/[C@H](C)C(C)C)[C@@]3(C)CC[C@@H]2[C@@]2(C)CC[C@H](O)C[C@@]23O[C@@H]13`, the Activity in data set [3] was 114%; in data set [4], 112%; in data set [1], “Non-toxic”; in data set [5], 297%; in [6], 100%; in data set [7], 314%. Moreover, the Activity in data set [8] was 102%; in data set [9], 133%; in data set [10], 125%; in data set [11], 289%; in [12] it was “Dose-dependent effect”. For the same compound, the EC50 in data set [2] came out at 8.2 µM.
Regarding `CCCCCCCCCCCCCCCCCC(=O)O[C@H]1CC[C@@]2(C)C(=CC=C3[C@@H]4CC[C@H]([C@H](C)/C=C/[C@H](C)C(C)C)[C@@]4(C)CC[C@@H]32)C1`, the Activity result in data set [1] was “Non-toxic”. The same compound yielded an EC50 in [2] greater than 50 µM.
For `CC(C)(Oc1ccc(C2CC2(Cl)Cl)cc1)C(=O)O` (centres undefined), the Activity in [13] was 311%.
Consider `CC/C=C\C/C=C\C/C=C\CCCCCCCC(=O)O[C@@H]1C=C2[C@@H]3CC[C@H]([C@H](C)/C=C/[C@H](C)C(C)C)[C@@]3(C)CC[C@@H]2[C@@]2(C)CC[C@H](O)C[C@]12O`, for which the Activity entry in data set [1] is on record as “Non-toxic”. Also, the EC50 in [2] was greater than 50 µM.
Regarding `CCCCC/C=C\C/C=C\CCCCCCCC(=O)O[C@H]1C=C2[C@@H]3CC[C@H]([C@H](C)/C=C/[C@H](C)C(C)C)[C@@]3(C)CC[C@@H]2[C@@]2(C)CC[C@H](O)C[C@]12O`, in data set [1], the Activity entry was “Non-toxic”. The same compound yielded an EC50 in data set [2] greater than 50 µM.
Regarding `CCCc1c(OCCCOc2ccc(OCC(=O)O)cc2)ccc(C(C)=O)c1O`, the Activity in data set [14] was 288%.
